Results from US20020055702A1, “ULTRASOUND-MEDIATED DRUG DELIVERY” (priority 1998, published 2002).
“Also recorded” adds a separate entry of the source.

Tested on: corpus cavernosum
Test: Intracorporal (cavernosal) pressure in anesthetized male dogs after topical papaverine gel with or without ultrasound
Type: in vivo, dog
Source text: The invention has reduced to practice and the principles of the invention have been proven by animal experiments. In these experiments, male dogs, one year old, were anesthetized and a midline abdominal incision was made from the xyphoid process down to the symphisis pubis. Proceeding slightly lateral to the left side of the penis, the corpus cavernosum was exposed. Two butterfly needles were placed into one of the corpus cavernosum, one proximally and one distally. The proximal needle was used for intracorporal pressure recordings, while saline was infused through the distal needle. Controlled intracorporal blood pressure (without applying any drugs) was monitored and recorded while saline was perfused at a rate of 1.7 ml/min. Nude mice skin was used to cover the exposed corpora by stitching it to the dog's incised skin. A gel containing 500 mg papaverine (in a base of polyethylene glycol, methyl paraben, butyl paraben, and butylated hydroxytoluene) was applied on the surface of the nude mice skin followed by the application of an ultrasound probe of 1 MHz, pulse mode 30%, at a power level of 2 w/cm^2, for 20 min. In the control experiments, papaverine was applied topically without any ultrasound application and the manometric pressure was monitored. The resulting manometric pressure was compared to the control pressure by measuring the time needed to reach the peak pressure and the time needed for the cavernosal pressure to decline to baseline.
Perfusion of the corpora with saline (with no ultrasound or papaverine application) was performed for 15 sec at a rate of 1.7 ml/min. creating a pressure ranging from 150-220 cm. H2O. The time needed for this pressure to drop to baseline (0-5) was 30 sec. Perfusion of the corpora with saline after applying ultrasound and papaverine reached the same pressure peak in only 5 sec. Moreover, the pressure declined to baseline in 1.5 minutes.

[1] = papaverine gel plus ultrasound versus baseline (saline only)

## COc1ccc(Cc2nccc3cc(OC)c(OC)cc23)cc1OC [papaverine]
Gel with 500 mg papaverine on nude mice skin over corpora, ultrasound 1 MHz, pulse mode 30%, 2 w/cm^2, 20 min, saline perfusion 1.7 ml/min
  time needed to reach the peak pressure: 5 s
Gel with 500 mg papaverine plus ultrasound 1 MHz, pulse mode 30%, 2 w/cm^2, 20 min, saline perfusion 1.7 ml/min
  time needed for the cavernosal pressure to decline to baseline: 1.5 min
Papaverine gel on the skin for 20 min, no ultrasound
  manometric pressure result compared to saline-only control: same results as in the control experiments; also recorded: no greater pressure readings than the no-drug control
Papaverine gel plus ultrasound treatment
  manometric pressure result with ultrasound: rise in pressure which was consistent with erection
[1]
  improvement in the period of time established as a baseline for the establishment of erection: 300%
  persistence of effects relative to the baseline erection parameters: 500%
